Assay results published in patent US8975415B2, “Chromane compounds” (CoMentis, Inc., priority 2012, dated 2015).

Columns and labels:
Aβ42 = experiment: Brain Aβ reduction in rats (Aβ42 ELISA); assay type: in vivo, Sprague-Dawley rats; details: rat, oral
Protocol: Effects on brain Aβ reduction in rats were determined with reference to the method described in the WO2012/054510. […] Concretely, the test was conducted with the method as below.
Test compounds were prepared in a vehicle of 35% HPβCD in H2O. The test compound was formulated the same day as oral dosing. Doses (see [Table. 1]) were based on the free base equivalent. Sonication was used where required to facilitate the formulation.
Male Sprague-Dawley rats (150-300 grams) were obtained from Charles River Japan (Atsugi, Japan) and were given approximately 4 days of acclimation. Food and water was made available ad libitum throughout the study. Animals were visually inspected for health before being included into the study group, and were randomly assigned to the treatment and control groups to achieve similar group mean body weights. The dosing solution (dose volume 5 mL/kg) was administered directly into the stomach using a rodent gavage needle. Control animals received oral administration of equivalent volume of the vehicle.
At a time post-dose (e.g., 3 hours; see [Table. 1]), animals were euthanized with isoflurane. […] Plasma was separated using centrifugation at 15,000 rpm (20,400×g) for 5 minutes at 4° C. and subsequently stored at −80° C. After blood sampling, CSF (cerebrospinal fluid) was carefully withdrawn from the cisterna magna using a 29 gauge needle after a quick dissection to expose the atlantooccipital membrane. The CSF samples were centrifuged at 15,000 rpm (20,400×g) for 5 minutes to confirm free of blood contamination and stored at −80° C. Immediately after decapitation, the hippocampus were isolated on ice, and quickly frozen in liquid nitrogen and stored at −80° C.
Fragments of the hippocampus were weighed while frozen. A 10-fold volume (w:v) of TBS (Tris-buffered saline) supplemented with a Complete Mini protease inhibitor tablet (catalog number: 11 836 153 001, Roche Diagnostics, In, USA) was added. The hippocampus were homogenized using sonication on ice in microcentrifuge tube. Resulting homogenates were centrifuged at 100,000×g for 1 hour in a refrigerated centrifuge at 4° C. Supernatants were collected as soluble fraction.
Each concentration of Aβ42 was divided by the mean concentration of Aβ42 of vehicle-treated group, and these ratios were converted to percentages.

hERG potassium channel = hERG potassium channel (Homo sapiens (Human), UniProt Q12809); experiment: hERG inhibition, automated planar patch-clamp in hERG-expressing CHO cells; details: read-out: Test Example 5 hERG IC50; whole-cell patch clamp, room temperature
BACE1 [1] = target: T1, BACE1 (Homo sapiens (Human), UniProt P56817); experiment: Measurement of Aβ production inhibition in cell (SK-N-BE(2) neuroblastoma cells, Aβ40 ELISA); details: Test Example 3 IC50, Aβ40 production, SK-N-BE(2) cells, 6 hours
Target sequence in this assay (P56817 46-501): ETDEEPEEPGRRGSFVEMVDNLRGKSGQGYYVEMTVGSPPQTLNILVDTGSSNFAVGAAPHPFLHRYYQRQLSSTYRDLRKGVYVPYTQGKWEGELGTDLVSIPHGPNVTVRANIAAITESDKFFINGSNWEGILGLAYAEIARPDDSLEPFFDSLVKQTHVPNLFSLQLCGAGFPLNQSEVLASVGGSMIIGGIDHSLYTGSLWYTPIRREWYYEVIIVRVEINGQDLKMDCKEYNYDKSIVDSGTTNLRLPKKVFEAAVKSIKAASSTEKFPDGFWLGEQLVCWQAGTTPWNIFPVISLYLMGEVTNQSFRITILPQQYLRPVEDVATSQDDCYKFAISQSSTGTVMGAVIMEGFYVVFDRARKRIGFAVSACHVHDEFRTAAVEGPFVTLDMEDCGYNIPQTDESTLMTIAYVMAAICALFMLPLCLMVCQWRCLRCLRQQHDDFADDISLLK
Protocol: The potency of compounds against BACE1 activity was determined in a cellular assay of Aβ production. […] Test compounds were dissolved in dimethyl sulfoxide and diluted with dimethyl sulfoxide and put into RPMI1640/5% FBS/penicillin-streptomycin media (final dimethyl sulfoxide concentration is 0.5%). […] CellTiter-Glo Substrate was dissolved into CellTiter-Glo Buffer and added to the plates in 95 μL/well. After shaking the plates for 2 minutes, the whole sample was transferred into a white 96-well plate and luminescence was measured for ATP quantification as the cell viability. Aβ concentration measured by ELISA was normalized by the viability of the corresponding cells.

BACE1 [2] = target: T1, BACE1; experiment: Measurement of BACE1 inhibition by fluorescence resonance energy transfer (FRET), MCA substrate; details: FRET
Target sequence in this assay (P56817 75-416): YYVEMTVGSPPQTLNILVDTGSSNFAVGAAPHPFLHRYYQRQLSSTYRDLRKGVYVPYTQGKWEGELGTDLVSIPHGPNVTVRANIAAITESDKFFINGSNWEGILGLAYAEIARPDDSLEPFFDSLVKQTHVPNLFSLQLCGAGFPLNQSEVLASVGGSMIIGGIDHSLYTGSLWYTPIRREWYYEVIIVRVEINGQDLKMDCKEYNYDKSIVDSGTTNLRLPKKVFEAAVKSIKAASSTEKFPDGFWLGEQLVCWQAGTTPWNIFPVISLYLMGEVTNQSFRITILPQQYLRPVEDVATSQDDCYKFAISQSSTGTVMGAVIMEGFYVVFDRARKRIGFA

Sequence of hERG potassium channel (Q12809 whole entry): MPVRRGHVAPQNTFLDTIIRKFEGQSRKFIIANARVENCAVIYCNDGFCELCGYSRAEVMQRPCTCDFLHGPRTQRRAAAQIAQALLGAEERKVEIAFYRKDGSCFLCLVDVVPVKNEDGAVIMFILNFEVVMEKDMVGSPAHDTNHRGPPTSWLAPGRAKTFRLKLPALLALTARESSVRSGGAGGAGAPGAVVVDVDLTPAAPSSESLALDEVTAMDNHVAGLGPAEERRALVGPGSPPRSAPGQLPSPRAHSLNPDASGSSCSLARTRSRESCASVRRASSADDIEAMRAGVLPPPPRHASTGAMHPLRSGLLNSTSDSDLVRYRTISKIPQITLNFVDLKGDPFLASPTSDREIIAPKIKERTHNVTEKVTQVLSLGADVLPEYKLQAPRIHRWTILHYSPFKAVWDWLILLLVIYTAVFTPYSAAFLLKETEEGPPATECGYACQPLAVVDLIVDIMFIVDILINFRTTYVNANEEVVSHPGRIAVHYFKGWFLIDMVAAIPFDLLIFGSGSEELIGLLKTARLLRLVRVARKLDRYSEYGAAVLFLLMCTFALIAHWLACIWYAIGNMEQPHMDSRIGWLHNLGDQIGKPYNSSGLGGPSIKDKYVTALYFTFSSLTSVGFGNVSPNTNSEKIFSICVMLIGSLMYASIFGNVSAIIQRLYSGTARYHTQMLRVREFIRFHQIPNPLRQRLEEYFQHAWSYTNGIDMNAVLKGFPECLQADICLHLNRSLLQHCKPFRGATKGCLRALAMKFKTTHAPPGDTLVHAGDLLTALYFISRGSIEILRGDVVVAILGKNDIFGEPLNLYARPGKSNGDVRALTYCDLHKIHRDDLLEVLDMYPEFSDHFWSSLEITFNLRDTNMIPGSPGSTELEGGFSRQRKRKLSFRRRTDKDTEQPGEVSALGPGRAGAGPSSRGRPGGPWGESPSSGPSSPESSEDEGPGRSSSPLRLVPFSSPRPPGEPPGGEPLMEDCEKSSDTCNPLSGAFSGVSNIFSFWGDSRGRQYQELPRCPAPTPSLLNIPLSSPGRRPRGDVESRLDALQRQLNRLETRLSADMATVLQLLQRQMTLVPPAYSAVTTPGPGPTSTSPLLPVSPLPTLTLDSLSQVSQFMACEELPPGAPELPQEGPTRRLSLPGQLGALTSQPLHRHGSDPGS

| Compound | melting point [°C] | Test Example 4 Aβ42 reduction (%) (Aβ42; 1 mg/kg, 3 hours) | Test Example 4 Aβ42 reduction (%) (Aβ42; 3 mg/kg, 3 hours) | other results |
| --- | --- | --- | --- | --- |
| CC1(C)Oc2ccc(NC(=O)c3cnc(C(F)F)cn3)cc2[C@@]2(COC(N)=N2)C12CC2.Cl | 254 | – | – | – |
| CC1(C)Oc2ccc(NC(=O)c3ccc(Cl)cn3)cc2[C@@]2(COC(N)=N2)C12COC2 (hydrate or solvate) [Example 218, N-[(4S)-2-amino-2′,2′-dimethyldispiro[1,3-oxazole-4,4′-chromene-3′,3″-oxetan]-6′-yl]-5-chloropyridine-2-carboxamide] | 165 | – | – | – |
| CC1(C)Oc2ccc(NC(=O)c3ccc(Cl)cn3)cc2[C@@]2(COC(N)=N2)C12COC2 [Example 218, N-[(4S)-2-amino-2′,2′-dimethyldispiro[1,3-oxazole-4,4′-chromene-3′,3″-oxetan]-6′-yl]-5-chloropyridine-2-carboxamide] | – | – | – | Test Example 4 Aβ42 reduction (%) (Aβ42; 3 mg/kg, 2.5 hours): 24%; Test Example 4 Aβ42 reduction (%) (Aβ42; 10 mg/kg, 2.5 hours): 31% |
| COc1cnc(C(=O)Nc2ccc3c(c2)[C@@]2(COC(N)=N2)C2(COC2)C(C)(C)O3)cn1 [Example 220] | – | – | – | Test Example 4 Aβ42 reduction (%) (Aβ42; 3 mg/kg, 1.5 hours): 21%; Test Example 4 Aβ42 reduction (%) (Aβ42; 10 mg/kg, 1.5 hours): 27%; IC50 (hERG potassium channel): > 10000 nM |
| CC1(C)Oc2ccc(NC(=O)c3ccc(Cl)cn3)cc2[C@@]2(COC(N)=N2)C12CC2 [Example 221] | – | 24 | 42 | IC50 (BACE1 [1]): 0.16 nM; Ki (BACE1 [2]; read-out: Test Example 1 BACE1 MCA Ki, MCA substrate): 37.8 nM; IC50 (BACE1 [2]; read-out: Test Example 1 IC50, MCA-SEVNLDAEFK(DNP)-NH2 substrate, pH 4.4): 81.8 nM |
| COc1cnc(C(=O)Nc2ccc3c(c2)[C@@]2(COC(N)=N2)C2(CC2)C(C)(C)O3)cn1 [Example 223, N-[(4′R)-2″-amino-2′,2′-dimethyldispiro[cyclopropane-1,3′-chromene-4′,4″-[1,3]oxazol]-6′-yl]-5-methoxypyrazine-2-carboxamide] | – | 19 | 34 | – |
| CC1(C)Oc2ccc(NC(=O)c3cnc(C(F)F)cn3)cc2[C@@]2(COC(N)=N2)C12CC2 [Example 224, N-[(4′R)-2″-amino-2′,2′-dimethyldispiro[cyclopropane-1,3′-chromene-4′,4″-[1,3]oxazol]-6′-yl]-5-(difluoromethyl)pyrazine-2-carboxamide] | – | 21 | 35 | IC50 (hERG potassium channel): 15100 nM |
| COc1cnc(C(=O)Nc2ccc3c(c2)[C@@]2(COC(N)=N2)C2(CC2)C(C)(C)O3)cn1 [Example 230, N-[(4′R)-2″-amino-2′,2′-dimethyldispiro[cyclopropane-1,3′-chromene-4′,4″-[1,3]oxazol]-6′-yl]-5-methoxypyrazine-2-carboxamide] | 191 | – | – | – |
